Patent US12371454B2, “Cyclic peptide compound having Kras inhibitory action” (priority 2019, dated 2025)
Starred links: 1 amine or outer side, 2 acyl side, 3 side chain; linkers in the order of their positions; H or OH if unused. Positions of bridges follow the written chain, without caps; N, C: chain ends. Non-standard residues stand in square brackets, D forms with d. Residues, ends and D or L forms follow the SMILES beside them. *: point of attachment. hPhe(3-Cl-4-CF3) = N[C@@H](CCc1ccc(C(F)(F)F)c(Cl)c1)C(=O)O; hPhe(3-F,4-CF3) = N[C@@H](CCc1ccc(C(F)(F)F)c(F)c1)C(=O)O; X67 = O=C([C@H](CCc1cc(F)c(F)cc1F)N[*:1])[*:2]; NMePhe(4-Cl) = CN[C@@H](Cc1ccc(Cl)cc1)C(=O)O; NMePhe(4-Me) = CN[C@@H](Cc1ccc(C)cc1)C(=O)O; X6 = CCN([C@@H](CC1CCCCC1)C(=O)[*:2])[*:1]; NMedβ3hAla = C[C@H](CC(=O)[*:2])N(C)[*:1]; NMeGly(cPent) = CN[C@H](C(=O)O)C1CCCC1; Phe(3-I) = N[C@@H](Cc1cccc(I)c1)C(=O)O; NMe4Pal = CN[C@@H](Cc1ccncc1)C(=O)O; NMeCha = CN[C@@H](CC1CCCCC1)C(=O)O; NMeChg = CN[C@H](C(=O)O)C1CCCCC1; NMeF = CN[C@@H](Cc1ccccc1)C(=O)O; NMeI = CC[C@H](C)[C@H](NC)C(=O)O; NMeE = CN[C@@H](CCC(=O)O)C(=O)O; NMeD = CN[C@@H](CC(=O)O)C(=O)O; NMeL = CN[C@@H](CC(C)C)C(=O)O; NMeAc5c = CNC1(C(=O)O)CCCC1; NMeV = CN[C@H](C(=O)O)C(C)C; d(β3hA) = C[C@@H](N)CC(=O)O; Morpholide = C1CN(*)CCO1; NMeA = CN[C@@H](C)C(=O)O; NMeAib = CNC(C)(C)C(=O)O; Nle = CCCC[C@H](N)C(=O)O; Piperidide = C1CCN(*)CC1; Ac5c = NC1(C(=O)O)CCCC1; Aze = O=C(O)[C@@H]1CCN1; Sar = CNCC(=O)O

Tested on: Human pancreatic cancer cell line AsPC-1
Experiment: Measurement of AsPC-1 cell growth inhibition (AsPC-1 CGI)
Assay type: cell-based
Settings: 96 h
Description: Measurement of AsPC-1 Cell Growth Inhibition (AsPC-1 CGI)
Test compounds were serially diluted with dimethyl sulfoxide, and 200 nL was then dispensed to a U-bottom 96-well plate using Labcyte Echo. Human pancreatic cancer cell line AsPC-1 was suspended in RPMI-1640 medium supplemented with 15% fetal bovine serum to prepare a cell suspension at 1000 cells/100 μL. The cell suspension was dispensed to a plate containing a test compound at 100 μL per well and incubated at 37° C. in a 5% carbon dioxide gas incubator. 96 hours later, 80 μL of CellTiter-Glo (Promega) was added to each well and […] was measured.

Row | Structure (SMILES) | IC50 [nM]
1 | CC[C@H](C)[C@@H]1NC(=O)[C@H](CC(C)C)N(C)C(=O)C[C@@H](C)N(C)C(=O)[C@H](CC(C)C)NC(=O)C2(CCCC2)N(C)C(=O)[C@H](CC(C)C)NC(=O)[C@H](CCc2ccc(C(F)(F)F)c(F)c2)NC(=O)CN(C)C(=O)[C@H](CC2CCCCC2)N(C)C(=O)CN(C)C(=O)CN(C)C1=O [Compound 2] (cyclo(I[Sar][Sar][NMeCha][Sar][hPhe(3-F,4-CF3)]L[NMeAc5c]L[NMedβ3hAla][NMeL])) | 100 to 500
2 | CC[C@H](C)[C@@H]1NC(=O)[C@H](CC(C)C)N(C)C(=O)C[C@@H](C(=O)N2CCCCC2)N(C)C(=O)[C@H](C(C)C)N(C)C(=O)C2(CCCC2)NC(=O)[C@@H]2CCCN2C(=O)[C@H](CCc2ccc(C(F)(F)F)c(Cl)c2)NC(=O)CN(C)C(=O)[C@H](CC2CCCCC2)N(CC)C(=O)[C@@H]2CCN2C(=O)[C@H](C)N(C)C1=O [Compound 23] ([NMeL]I[NMeA][Aze][X6][Sar][hPhe(3-Cl-4-CF3)]P[Ac5c][NMeV][NMeD]-Piperidide; lactam N-11) | 100 to 500
3 | CC[C@H](C)[C@@H]1NC(=O)[C@H](CC(C)C)N(C)C(=O)C[C@@H](C(=O)N2CCCCC2)N(C)C(=O)[C@H](C2CCCCC2)N(C)C(=O)C2(CCCC2)NC(=O)[C@H](Cc2ccncc2)N(C)C(=O)[C@H](CCc2ccc(C(F)(F)F)c(Cl)c2)NC(=O)CN(C)C(=O)[C@H](CC2CCCCC2)N(C)C(=O)CN(C)C(=O)CN(C)C1=O [Compound 36] ([NMeL]I[Sar][Sar][NMeCha][Sar][hPhe(3-Cl-4-CF3)][NMe4Pal][Ac5c][NMeChg][NMeD]-Piperidide; lactam N-11) | 100 to 500

Target: T1, Kras and SOS1 (biotin-tagged human Kras loaded with GDP, His-tagged human SOS1) (Homo sapiens, UniProt P01116, G12D)
T1 construct: made in house; host or cells: E. coli (stated for Kras only)
Experiment: Protein-protein interaction inhibition between Kras and SOS1 (KrasGl2D-SOS PPI) using AlphaScreen
Assay type: binding
Settings: AlphaScreen; biotin-tagged human Kras loaded with GDP, His-tagged human SOS1; read-out: KRAS G12D-SOS PPI IC50
Method in brief: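 Binding between SOS1 and Kras is detected as bead-proximity luminescence: illuminate Ni-conjugated donors (680 nm), collect 520-620 nm emission from streptavidin-conjugated acceptors; Kras carries biotin and GDP loaded after purification, SOS1 carries a His tag.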

T1 sequence (P01116 1-188 isoform P01116-2 G12D): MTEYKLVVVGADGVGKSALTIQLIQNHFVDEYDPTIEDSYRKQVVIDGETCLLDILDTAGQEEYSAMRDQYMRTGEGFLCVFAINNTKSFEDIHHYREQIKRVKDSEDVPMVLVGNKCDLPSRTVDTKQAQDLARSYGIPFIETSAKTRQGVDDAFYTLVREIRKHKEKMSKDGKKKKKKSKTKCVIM

Row | Structure (SMILES) | IC50 [nM]
4 | CC[C@H](C)[C@@H]1NC(=O)[C@H](C)N(C)C(=O)C[C@@H](C)NC(=O)[C@H](CC(C)C)N(C)C(=O)[C@H](Cc2ccccc2)N(C)C(=O)[C@H](CC(C)C)NC(=O)[C@H](CCc2cc(F)c(F)cc2F)NC(=O)CN(C)C(=O)[C@H](Cc2ccc(Cl)cc2)N(C)C(=O)CN(C)C(=O)CN(C)C1=O [Compound 2087] (cyclo(I[Sar][Sar][NMePhe(4-Cl)][Sar][X67]L[NMeF][NMeL][d(β3hA)][NMeA])) | 130
5 | CCCC[C@@H]1NC(=O)[C@H](Cc2cccc(I)c2)NC(=O)CN(C)C(=O)[C@H](Cc2ccc(C)cc2)N(C)C(=O)CN(C)C(=O)CN(C)C(=O)[C@H]([C@@H](C)CC)NC(=O)[C@H](CC(C)C)N(C)C(=O)C[C@@H](C(=O)N2CCCCC2)N(C)C(=O)[C@H](CC(C)C)NC(=O)[C@H](CCC(=O)N(C)C)N(C)C1=O [Compound 2100, 3-[(3S,6S,9S,12S,18S,27S,30S,34S)-9-butyl-12-[(3-iodophenyl)methyl]-3,30-diisobutyl-1,7,16,19,22,25,31-heptamethyl-27-[(1S)-1-methylpropyl]-2,5,8,11,14,17,20,23,26,29,32-undecaoxo-34-(piperidine-1-carbonyl)-18-(p-tolylmethyl)-1,4,7,10,13,16,19,22,25,28,31-undecazacyclotetratriacont-6-yl]-N,N-dimethyl-propanamide] ([NMeL]I[Sar][Sar][NMePhe(4-Me)][Sar][Phe(3-I)][Nle][NMeE](NMe2)L[NMeD]-Piperidide; lactam N-11) | 15
6 | CC[C@H](C)[C@@H]1NC(=O)[C@H](CC(C)C)N(C)C(=O)C[C@@H](C(=O)N2CCOCC2)N(C)C(=O)[C@H](C2CCCC2)N(C)C(=O)C2(CCCC2)NC(=O)[C@H](CCC(=O)NC)N(C)C(=O)[C@H](CCc2ccc(C(F)(F)F)c(Cl)c2)NC(=O)CN(C)C(=O)[C@H](CC2CCCCC2)N(C)C(=O)[C@@H]2CCN2C(=O)[C@H](C)N(C)C1=O [Compound 2111] ([NMeL]I[NMeA][Aze][NMeCha][Sar][hPhe(3-Cl-4-CF3)][NMeE](NHMe)[Ac5c][NMeGly(cPent)][NMeD]-Morpholide; lactam N-11) | 8.2
7 | CC[C@H](C)[C@@H]1NC(=O)[C@H](C)N(C)C(=O)C[C@@H](C)N(C)C(=O)[C@H]([C@@H](C)CC)N(C)C(=O)C(C)(C)N(C)C(=O)[C@@H]2CCCN2C(=O)[C@H](CCc2ccc(C(F)(F)F)c(Cl)c2)NC(=O)CN(C)C(=O)[C@H](CC2CCCCC2)N(C)C(=O)[C@@H]2CCN2C(=O)[C@H](C)N(C)C1=O [Compound 2153] (cyclo([Aze][NMeCha][Sar][hPhe(3-Cl-4-CF3)]P[NMeAib][NMeI][NMedβ3hAla][NMeA]I[NMeA])) | 6.9
